Data reported in patent publication US6869949B2, “Polysubstituted imidazopyridines as gastric secretion inhibitors” (Altana Pharma AG, priority 2000, dated 2005).

System: not given
Assay: not given
Settings: not given

| melting point | SMILES |
| --- | --- |
| 222 to 225 °C | Cc1nc2c3c(ccn2c1C)C(=O)C(O)C(c1ccsc1)N3 (centres unmarked) [Example 1, 8-Hydroxy-2,3-dimethyl-9-(3-thienyl)-7,8,9,10-tetrahydroimidazo[1,2-h][1,7]naphthyridin-7-one] |
| 134 to 138 °C | Cc1nc2c3c(ccn2c1C)C(O)C(O)C(c1ccsc1)N3 (centres unmarked) [Example 2, 7,8-Dihydroxy-2,3-dimethyl-9-(3-thienyl)-7,8,9,10-tetrahydroimidazo[1,2-h][1,7]naphthyridine] |
| 176 to 177 °C | Cc1nc2c3c(ccn2c1C)C(=O)CC(c1ccsc1)N3 (centres unmarked) [Example 3, 2,3-Dimethyl-9-(3-thienyl)-7,8,9,10-tetrahydroimidazo[1,2-h][1,7]naphthyridin-7-one] |
| 192 to 194 °C | Cc1nc2c3c(ccn2c1C)C(O)CC(c1ccsc1)N3 (centres unmarked) [Example 4, 7-Hydroxy-2,3-dimethyl-9-(3-thienyl)-7,8,9,10-tetrahydroimidazo[1,2-h][1,7]naphthyridine] |
| 221 to 222 °C | Cc1nc2c3c(ccn2c1C)C(O)CC(c1ccoc1)N3 (centres unmarked) [Example 7, 9-(3-Furyl)-7-hydroxy-2,3-dimethyl-7,8,9,10-tetrahydroimidazo[1,2-h][1,7]naphthyridine] |
| 119 °C (dec.) | Cc1cn2ccc3c(c2n1)N[C@H](c1ccccc1)[C@@H](O)[C@@H]3O [Example 11, (7R,8R,9R)-7,8-Dihydroxy-2-methyl-9-phenyl-7,8,9,10-tetrahydroimidazo[1,2-h][1,7]naphthyridine] |
| 153 to 154 °C | COCCO[C@@H]1c2ccn3c(Br)c(C)nc3c2N[C@H](c2ccccc2)[C@H]1O [Example 13, (7R,8R,9R)-3-Bromo-8-hydroxy-7-(2-methoxyethoxy)-2-methyl-9-phenyl-7,8,9,10-tetrahydroimidazo[1,2-h][1,7]naphthyridine] |
| 123 to 126 °C | COCCO[C@@H]1c2ccn3c(Cl)c(C)nc3c2N[C@H](c2ccccc2)[C@H]1O [Example 14, (7R,8R,9R)-3-Chloro-8-hydroxy-7-(2-methoxyethoxy)-2-methyl-9-phenyl-7,8,9,10-tetrahydroimidazo[1,2-h][1,7]naphthyridine] |
| 180 to 183 °C | COCCO[C@@H]1c2ccn3c(CO)c(C)nc3c2N[C@H](c2ccccc2)[C@H]1O [Example 22, (7R,8R,9R)-3-Hydroxymethyl-8-hydroxy-7-(2-methoxyethoxy)-2-methyl-9-phenyl-7,8,9,10-tetrahydroimidazo[1,2-h][1,7]naphthyridine] |
| 190 to 192 °C | COCCO[C@@H]1c2ccn3c(-c4ccccc4)c(C)nc3c2N[C@H](c2ccccc2)[C@H]1O [Example 25, (7R,8R,9R)-3,9-Diphenyl-8-hydroxy-7-(2-methoxyethoxy)-2-methyl-7,8,9,10-tetrahydroimidazo[1,2-h][1,7]naphthyridine] |
| 168 to 173 °C | COCc1nc2c3c(ccn2c1C)C(=O)[C@H](O)[C@@H](c1ccccc1)N3 [Example 26, (8R,9R)-8-Hydroxy-2-methoxymethyl-3-methyl-9-phenyl-7,8,9,10-tetrahydroimidazo[1,2-h][1,7]naphthyridin-7-one] |
| 102 to 104 °C | COCc1nc2c3c(ccn2c1C)[C@@H](O)[C@H](O)[C@@H](c1ccccc1)N3 [Example 27, (7R,8R,9R)-7,8-Dihydroxy-2-methoxymethyl-3-methyl-9-phenyl-7,8,9,10-tetrahydroimidazo[1,2-h][1,7]naphthyridine] |
| 63 to 65 °C | COCCO[C@H]1c2ccn3c(C)c(COC)nc3c2N[C@H](c2ccccc2)[C@H]1O [Example 28a, (7S,8R,9R)-8-hydroxy-7-(2-methoxyethoxy)-2-methoxymethyl-3-methyl-9-phenyl-7,8,9,10-tetrahydroimidazo[1,2-h][1,7]naphthyridine] |

System: acid secretion stimulated by pentagastrin of the perfused rat stomach
Assay: Testing of the secretion-inhibiting action on the perfused rat stomach
Settings: dose 3 μmol/kg i.d., anesthetized CD rats, perfused stomach in vivo
Protocol: The abdomen of anesthetized rats (CD rats, female, 200-250 g; 1.5 g/kg i.m. urethane) was opened after tracheotomy by means of a median upper abdominal incision and a PVC catheter was fixed transorally in the esophagus and a further catheter via the pylorus such that the ends of the tubing just projected into the gastric lumen. The catheter leading from the pylorus led outwards through a side opening in the right abdominal wall.
After thorough rinsing (about 50-100 ml), warm physiological NaCl solution at 37° C. was continuously passed through the stomach (0.5 ml/min, pH 6.8-6.9; Braun-Unita I). The pH (pH meter 632, glass electrode EA 147; φ=5 mm, Metrohm), and, by titration with a freshly prepared 0.01 N NaOH solution to pH 7 (Dosimat 665 Metrohm), the secreted HCl were determined in the effluent in each case collected at an interval of 15 minutes.
The gastric secretion was stimulated by continuous perfusion of 1 μg/kg (=1.65 ml/h) of i.v. pentagastrin (left femoral vein) about 30 min after the end of the operation (i.e. alter determination of 2 preliminary fractions). The substances to be tested were administered intraduodenally in 2,5 ml/kg of liquid volume 60 min after the start of the pentagastrin continuous infusion.
The body temperature of the animals was kept at a constant 37.8-38° C. by infrared irradiation and heat pads (automatic, stepless control by means of rectal temperature sensors).

| SMILES | Inhibition of acid secretion (%) |
| --- | --- |
| COCCOCCO[C@@H]1c2ccn3c(C)c(C)nc3c2N[C@H](c2ccccc2)[C@H]1O [Example 8, (7R,8R,9R)-8-Hydroxy-7-[2-(2-methoxyethoxy)ethoxy]-2,3-dimethyl-9-phenyl-7,8,9,10-tetrahydroimidazo[1,2-h][1,7]naphthyridine] | 100% |
| COCCOCCO[C@H]1c2ccn3c(C)c(C)nc3c2N[C@H](c2ccccc2)[C@H]1O [Example 9, (7S,8R,9R)-8-Hydroxy-7-[2-(2-methoxyethoxy)ethoxy]2,3-dimethyl-9-phenyl-7,8,9,10-tetrahydroimidazo[1,2-h][1,7]naphthyridine] | 100% |
| Cc1cn2ccc3c(c2n1)N[C@H](c1ccccc1)[C@@H](O)[C@@H]3O [Example 11, (7R,8R,9R)-7,8-Dihydroxy-2-methyl-9-phenyl-7,8,9,10-tetrahydroimidazo[1,2-h][1,7]naphthyridine] | 100% |
| COCCO[C@H]1c2ccn3cc(C)nc3c2N[C@H](c2ccccc2)[C@H]1O [Example 12a, (7S,8R,9R)-8-hydroxy-2-methyl-7-(2-methoxyethoxy)-9-phenyl-7,8,9,10-tetrahydroimidazo[1,2-h][1,7]naphthyridine] | 100% |
| COCCO[C@@H]1c2ccn3cc(C)nc3c2N[C@H](c2ccccc2)[C@H]1O [Example 12b, (7R,8R,9R)-8-hydroxy-2-methyl-7-(2-methoxyethoxy)-9-phenyl-7,8,9,10-tetrahydroimidazo[1,2-h][1,7]-naphthyridine] | 100% |
| COCCO[C@@H]1c2ccn3c(Br)c(C)nc3c2N[C@H](c2ccccc2)[C@H]1O [Example 13, (7R,8R,9R)-3-Bromo-8-hydroxy-7-(2-methoxyethoxy)-2-methyl-9-phenyl-7,8,9,10-tetrahydroimidazo[1,2-h][1,7]naphthyridine] | 100% |
| COCCO[C@@H]1c2ccn3c(Cl)c(C)nc3c2N[C@H](c2ccccc2)[C@H]1O [Example 14, (7R,8R,9R)-3-Chloro-8-hydroxy-7-(2-methoxyethoxy)-2-methyl-9-phenyl-7,8,9,10-tetrahydroimidazo[1,2-h][1,7]naphthyridine] | 100% |
| COCCO[C@@H]1c2ccn3c(Cl)c(C)nc3c2O[C@H](c2ccccc2)[C@@H]1O [Example 16, (7R,8R,9R)-3-Chloro-8-hydroxy-7-(2-methoxyethoxy)-2-methyl-9-phenyl-7H-8,9-dihydro-pyrano[2,3-c]imidazo[1,2-a]pyridine] | 100% |
| COCCO[C@@H]1c2ccn3cc(C)nc3c2O[C@H](c2ccccc2)[C@@H]1O [Example 17, (7R,8R,9R)-8-Hydroxy-7-(2-methoxyethoxy)-2-methyl-9-phenyl-7H-8,9-dihydro-pyrano[2,3-c]imidazo[1,2-a]pyridine] | 100% |
| Cc1cn2ccc3c(c2n1)O[C@H](c1ccccc1)[C@H](O)[C@@H]3O [Example 18, (7R,8R,9R)-7,8-Dihydroxy-2-methyl-9-phenyl-7H-8,9-dihydropyrano[2,3-c]imidazo[1,2-a]pyridine] | 100% |
| CO[C@@H]1c2ccn3cc(C)nc3c2N[C@H](c2ccccc2)[C@H]1O [Example 20, (7R,8R,9R)-8-Hydroxy-7-methoxy-2-methyl-9-phenyl-7,8,9,10-tetrahydroimidazo[1,2-h][1,7]naphthyridine] | 100% |
| CO[C@H]1c2ccn3cc(C)nc3c2N[C@H](c2ccccc2)[C@H]1O [Example 21, (7S,8R,9R)-8-Hydroxy-7-methoxy-2-methyl-9-phenyl-7,8,9,10-tetrahydroimidazo[1,2-h][1,7]naphthyridine] | 100% |
| COCCO[C@@H]1c2ccn3c(CO)c(C)nc3c2N[C@H](c2ccccc2)[C@H]1O [Example 22, (7R,8R,9R)-3-Hydroxymethyl-8-hydroxy-7-(2-methoxyethoxy)-2-methyl-9-phenyl-7,8,9,10-tetrahydroimidazo[1,2-h][1,7]naphthyridine] | 100% |
